The values that follow are results of earlier work, collected in patent US10441593B2, “Treatment of pain associated with dislocation of endometrium” (PREGLEM S.A., priority 2010, dated 2019).

In one data set the test system is endometriosis. As to conditions: cited from earlier work.
A further data set has as its system liver enzyme. As to conditions: clinical development program; 12.5 mg, 25 mg and 50 mg; cited from earlier work.

For `COCC(=O)[C@@]1(OC(C)=O)CC[C@H]2[C@@H]3CCC4=CC(=O)CCC4=C3[C@@H](c3ccc(N(C)C)cc3)C[C@@]21C` [Proellex], the “days of pain compared with baseline” value in the data set on endometriosis (50 mg group, end of the first months of therapy) was “statistically significant reduction in days of pain”. Moreover, in the data set on endometriosis (6 month study), the “dose response in treatment of endometriosis” value was “clearly support a dose response”. Further, in the data set with liver enzyme, the “liver enzyme (sign of liver toxicity, DILI)” value is listed as “dose related increase in liver enzyme”.
